Measurements published in patent publication US20070010401A1, “Synergistic combination of a glyphosate herbicide and a triazole fungicide” (Cheminova A/S, priority 2005, published 2007).

Experiments:
Phakopsora pachyrhizi [1] = assay: Curative treatment of glyphosate resistant soybean plants three days after inoculation with soybean rust; type: in vivo; conditions: treated 3 days after inoculation, assessed four weeks after inoculation
Text: (§1) In the Colby method, also referred to as the Limpels method, the action to be expected (E) for a given active ingredient combination obeys the so-called Colby formula. According to Colby, the expected (additive) action of active ingredients I+II using p+q ppm of active ingredient is: [formula] where ppm equals the milligrams of active ingredient (=a.i.) per liter of spray mixture; X equals the % action by component (a) using p ppm of active ingredient; Y equals the % action by component (b) using q ppm of active ingredient. If the action actually observed (O) is greater than the expected action (E), then the action of the combination is superadditive, i.e. there is a synergistic effect. For a more detailed description of the Colby formula, see Colby, S. R. “Calculating synergistic and antagonistic responses of herbicide combination,” Weeds, Vol. 15, pages 20-22; (1967); see also Limpel et al., Proc. NEWCC 16: 48-53 (1962), both of which are herein incorporated by reference in their entirety.
Curative treatment. […] Four weeks after inoculation, disease incidence and severity is determined on the first trifoliate. […]

Phakopsora pachyrhizi [2] = assay: Protective treatment of glyphosate resistant soybean plants three days prior to inoculation with soybean rust; type: in vivo; conditions: treated 3 days prior to inoculation, assessed four weeks after inoculation
Text: as §1
Protective Treatment. […] Four weeks after inoculation, disease incidence and severity is determined on the first trifoliate. […]

## OC(Cn1cncn1)(c1ccc(F)cc1)c1ccccc1F (stereo not shown) [Flutriafol, flutriafol]
Phakopsora pachyrhizi [1]; 30 g AI/hectare
  Observed control (O) %: 39%
Phakopsora pachyrhizi [2]; 30 g AI/hectare
  Observed control (O) %: 11%

## O=C(O)CNCP(=O)(O)O [Glyphosate (acid), N-(phosphonomethyl)glycine]
Phakopsora pachyrhizi [1]; 100 g AI/hectare
  Observed control (O) %: 27%
Phakopsora pachyrhizi [2]; 100 g AI/hectare
  Observed control (O) %: 82%
